Laboratory results published in patent US20150352134A1, “COMPOSITION FOR TOPICAL SKIN APPLICATION CONTAINING GINSENOSIDE F2 DERIVED FROM HYDROPONIC GINSENG” (AMOREPACIFIC CORPORATION, priority 2012, published 2015).

How the values were obtained:
[1] = tested on: procollagen type (I) in fibroblasts; test: Collagen biosynthesis in fibroblasts (procollagen type (I) ELISA); type: cell-based; settings: 10 ng/ml, 24 hours; non-treated group = 100%
Protocol: The ginsenoside F2 of the present invention is compared with TGF-β in regards to the effect of promoting biosynthesis of collagen. Firstly, fibroblasts are seeded in 24 wells at a rate of 10^5 per well and cultured until the growth reaches 90%. The fibroblasts are cultured in a non-serum culture medium for 24 hours, treated with each 10 ng/ml of ginsenoside F2 or TGF-β dissolved in the non-serum culture medium, and then cultured in a CO2 incubator for 24 hours. The supernatant liquid is collected to determine an increase or decrease of procollagen using a procollagen type (I) ELISA kit. The collagen synthesis ability is denoted with respect to 100% for the non-treated group.

MITF = MITF expression in melanocytes (Western Blot); type: cell-based; settings: 501me1 cell line, IBMX 100 μM, ginsenoside 10 ppm
Protocol: 501me1 cell line is injected in each well of a 6-well microtiter plate at a rate of 500,000 cells/well. The cell line in each well is treated with 0.1% of DMSO as the negative control group, 100 μM of IBMX as the positive control group, or ginsenoside 10 ppm of F2 as the test group, and cultured at 37° C. for 24 hours, 48 hours, or 72 hours, to obtain proteins. The proteins thus obtained are subjected to Western Blot using MITF and tyrosinase antibodies. Protein extraction and Western Blot are performed using the standard methods known in the art.

elastase type III = target: T1, elastase type III (Sus scrofa, UniProt P00772); test: Elastase inhibitory effect; type: biochemical; settings: EGCG 250 μM; 25° C., 15 minutes, absorbance 415 nm
T1 construct: purchased Sigma-Aldrich E0127
T1 sequence (P00772 27-266): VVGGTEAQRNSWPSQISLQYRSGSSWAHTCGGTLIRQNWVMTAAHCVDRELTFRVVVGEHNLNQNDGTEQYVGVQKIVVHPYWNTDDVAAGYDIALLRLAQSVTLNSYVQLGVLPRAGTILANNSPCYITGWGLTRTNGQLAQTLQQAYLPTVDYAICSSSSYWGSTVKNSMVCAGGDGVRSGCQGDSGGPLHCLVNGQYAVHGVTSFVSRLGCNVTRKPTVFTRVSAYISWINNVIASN
Protocol: The elastase inhibitory function of the ginsenoside F2 is measured in comparison with that of EGCG. The elastase and the substrate used herein are purchased from Sigma-Aldrich, U.S.A. (Cat. No. E0127).
The elastase inhibitory function is measured according to the following method.
In a 96-well plate, ginsenoside F2 (200 μL) and 50 μL of a 20 μg/mL elastase type III solution are mixed with a […] tris-HCL buffer solution (pH 8.0). The positive control is EGCG 250 μM, and the negative control which is a non-treated group is distilled water. Then, 100 μL of 0.4514 mg/mL N-succinyl-ala-ala-ala-p-nitroanilide prepared with the buffer solution is added to the mixture and allowed to react at 25° C. for 15 minutes. After completion of the reaction, the absorbance at 415 nm was measured. The blank test is performed in the same manner as described above to achieve calibration verification.
The elastase inhibitory function is calculated according to the following mathematical formula 1, and the results are presented in Table 2.
Elastase inhibition rate (%)={1−(C−D)/(A−B)}×100 [Mathematical Formula 1]
A: Absorbance at 415 nm with enzyme and no test substance.
B: Absorbance at 415 nm with no test substance and no enzyme.
C: Absorbance at 415 nm with test substance and enzyme.
D: Absorbance at 415 nm with test substance and no enzyme.

[2] = tested on: potassium ion channels (KATP channels); test: KATP channel opener test: recovery of NIH3T3 proliferation blocked by tolbutamide (WST-1); type: cell-based, mouse; settings: 48 hours
Source text: Minoxidil, a treatment for hair loss, is known as a potassium ion channel opener (KATP channel opener) potentially acting on mitochondria and a representative drug used for treatment of androgenic alopecia (hair loss). A testing method used to evaluate the action of minoxidil includes treating with tolbutamide (SIGMA-ALDRICH, T0891) blocking the potassium ion channels (KATP channels) in fibroblasts constituting the corium of scalp to inhibit cell proliferation and then opening the potassium ion channels (KATP channels) to resume the cell proliferation. In order to evaluate the function of the composition of the present invention as a KATP channel opener, the present invention uses a mouse embryonic fibroblast cell line, NIH3T3, as fibroblasts. The cell line is obtained by naturally immortalizing a fibroblast cell line isolated from an NIH Swiss mouse embryo with 3T3 protocol. The cell line is cultured with DMEM (Dulbecco's modified eagle's medium, Gibco BRL, Gaithersburg, Md., U.S.A.) containing 10% FBS (Fetal Bovine Serum) in an incubator under the conditions of 5% CO2 and 37° C. for 24 hours.

[3] = tested on: Keratinocytes isolated from the human epidermal tissue; test: Inhibition of reactive oxygen species formation after UVB (DCF-DA fluorescence); type: cell-based; settings: 1% ginsenoside F2; for ratio to the ROS of the control group, elapsed time after exposure to 30 mJ/cm^2 of UVB 0 hr: 0 hr after 30 mJ/cm^2 UVB; for ratio to the ROS of the control group, elapsed time after exposure to 30 mJ/cm^2 of UVB 2 hrs: 2 hrs after 30 mJ/cm^2 UVB; for ratio to the ROS of the control group, elapsed time after exposure to 30 mJ/cm^2 of UVB 3 hrs: 3 hrs after 30 mJ/cm^2 UVB
Protocol: 5×10^4 Keratinocytes isolated from the human epidermal tissue are put in each well of a 24-well plate and immobilized for 24 hours. After 16 hours, the keratinocytes are treated with 1% ginsenoside F2. For a comparison, the control group is not treated with ginsenoside F2. Each well is removed of the culture medium after 2 hours and then fed with 100 μl of a phosphate-buffered saline (PBS) solution. The keratinocytes are exposed to 30 mJ/cm^2 of ultraviolet radiation under an ultraviolet B (UVB) lamp (Model: F15T8, UV B 15 W, Sankyo Denki Co., Ltd., Japan). Each well is removed of the PBS solution and then supplied with 200 μl of the keratinocyte culture medium. The well is treated with ginsenoside F2 again. Then, the quantity of the reactive oxygen species (ROS) increased by the UV stimulation is determined at defined time intervals. The quantity of the reactive oxygen species (ROS) is determined according to the method that includes measuring the fluorescence of dichlorofluorescin diacetate (DCF-DA) (Tan et al., 1998, J. Cell Biol. Vol. 141, pp 1423-1432).

tyrosinase = test: Tyrosinase inhibitory effect; type: biochemical, mushrooms; settings: 37° C., absorbance 475 nm
Protocol: The tyrosinase as used herein is an enzyme extracted from mushrooms and purchased from Sigma-Aldrich. Firstly, tyrosine as a substrate is dissolved in distilled water to prepare a 0.3 mg/mL solution, which is added dropwise to a test tube at an amount of 1.0 mL each time. To the solution are added 1.0 mL of a potassium phosphate buffer solution (0.1 mol, pH 6.8) and 0.7 mL of distilled water.
0.2 mL of the sample solution is added to the reactant solution and then allowed to have a reaction in a thermostat container at 37° C. for 10 minutes. In this regards, the control is the reactant solution containing 0.2 mL of a solvent alone in place of each sample solution. The positive control uses ascorbic acid. 0.1 mL of a 2500 unit/mL tyrosinase solution is added to the reactant solution, which is then allowed to have a reaction again in a thermostat container at 37° C. for 10 minutes. The test tube filled with the reactant solution is put into an ice water to cause quenching and thus stop the reaction. The absorbance at 475 nm is measured with a photoelectric spectrophotometer. The tyrosinase inhibitory effect is calculated according to the following mathematical formula 3.

[4] = tested on: DP6 (rat immortalized dermal papilla cell) line; test: Proliferation of hair follicle dermal papilla cells (WST-1); type: cell-based; settings: 24 hours, not treated control = 100
Source text: The keratin protein constituting hair is produced by the keratinocytes in the hair roots, and the keratinocytes are differentiated from the hair papilla cells. To evaluate the composition of the present invention in regards to the effect to enhance the activity of hair papilla cells, the present invention uses DP6 (rat immortalized dermal papilla cell) line (Wendy Filsell, Journal of Cell Science 107, 1761-1772 (1994)). The hair papilla cells used in the present invention are a cell line isolated from the hair roots of male PVG rats by the microdissection method and cultured with DMEM (Dulbecco's modified eagle's medium, Gibco BRL, Gaithersburg, Md., U.S.A.) containing 10% FBS (Fetal Bovine Serum) in an incubator under the conditions of 5% CO2 and 37° C. for 24 hours. DP6 is put in the 96-well plate, cultured in an incubator at 37° C. for 24 hours and treated with the ginsenoside F2 of the present invention independently at a concentration of 5 ppm, 10 ppm, or 20 ppm. 24 hours after the treatment, the cell proliferation ability is measured using a WST-1 kit (Roche).

[5] = 2.5 ppm after 2.5 mM tolbutamide
[6] = 10 ppm after 2.5 mM tolbutamide

SMILES: CC(C)=CCC[C@](C)(O[C@@H]1O[C@H](CO[C@@H]2O[C@H](CO)[C@@H](O)[C@H](O)[C@H]2O)[C@@H](O)[C@H](O)[C@H]1O)[C@H]1CC[C@]2(C)[C@@H]1[C@H](O)C[C@@H]1[C@@]3(C)CC[C@H](O[C@@H]4O[C@H](CO)[C@@H](O)[C@H](O)[C@H]4O[C@@H]4O[C@H](CO)[C@@H](O)[C@H](O)[C@H]4O)C(C)(C)[C@@H]3CC[C@]12C [Ginsenoside Rb1]
- Collagen synthesis ability (%) [1]: 188.3%
- MITF (Western Blot, in comparison with 100 of the negative control group) (MITF; 24 hrs): 93
- MITF (Western Blot, in comparison with 100 of the negative control group) (MITF; 48 hrs): 116
- MITF (Western Blot, in comparison with 100 of the negative control group) (MITF; 72 hrs): 144
- Inhibition rate (%) (elastase) (elastase type III): 71%
- Cell proliferation ability (%) [2, 5]: 113%
- Cell proliferation ability (%) ([2]; 5 ppm after 2.5 mM tolbutamide): 117%
- Cell proliferation ability (%) [2, 6]: 124%
- ratio to the ROS of the control group, elapsed time after exposure to 30 mJ/cm^2 of UVB 0 hr [3]: 100
- ratio to the ROS of the control group, elapsed time after exposure to 30 mJ/cm^2 of UVB 2 hrs [3]: 302
- ratio to the ROS of the control group, elapsed time after exposure to 30 mJ/cm^2 of UVB 3 hrs [3]: 354
- Tyrosinase inhibition rate (%) (tyrosinase): 60%
- Cell proliferation ability (%) ([4]; 5 ppm): 114%
- Cell proliferation ability (%) ([4]; 10 ppm): 118%
- Cell proliferation ability (%) ([4]; 20 ppm): 127%

SMILES: CC(C)=CCC[C@](C)(O[C@@H]1O[C@H](CO)[C@@H](O)[C@H](O)[C@H]1O)[C@H]1CC[C@]2(C)[C@@H]1[C@H](O)C[C@@H]1[C@@]3(C)CC[C@H](O[C@@H]4O[C@H](CO)[C@@H](O)[C@H](O)[C@H]4O)C(C)(C)[C@@H]3CC[C@]12C [Ginsenoside F2, ginsenoside F2]
- Collagen synthesis ability (%) [1]: 191.6%
- MITF (Western Blot, in comparison with 100 of the negative control group) (MITF; 24 hrs): 92
- MITF (Western Blot, in comparison with 100 of the negative control group) (MITF; 48 hrs): 120
- MITF (Western Blot, in comparison with 100 of the negative control group) (MITF; 72 hrs): 162
- Inhibition rate (%) (elastase) (elastase type III): 78%
- Cell proliferation ability (%) [2, 5]: 115%
- Cell proliferation ability (%) ([2]; 5 ppm after 2.5 mM tolbutamide): 120%
- Cell proliferation ability (%) [2, 6]: 131%
- ratio to the ROS of the control group, elapsed time after exposure to 30 mJ/cm^2 of UVB 0 hr [3]: 100
- ratio to the ROS of the control group, elapsed time after exposure to 30 mJ/cm^2 of UVB 2 hrs [3]: 251
- ratio to the ROS of the control group, elapsed time after exposure to 30 mJ/cm^2 of UVB 3 hrs [3]: 286
- Tyrosinase inhibition rate (%) (tyrosinase): 69%
- Cell proliferation ability (%) ([4]; 5 ppm): 116%
- Cell proliferation ability (%) ([4]; 10 ppm): 122%
- Cell proliferation ability (%) ([4]; 20 ppm): 138%
